# From the supplement of paper PMC10307832
# Assays:
# Experiment in all cases: relative viability (nuclei count vs DMSO), 5 days (fraction); higher = more cells survive
# NCI-H1915 = tested on: NCI-H1915
# Procedure, shortened: (§1)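 Lung cancer cell lines, seeded in 1536-well plates, were treated the following day by pin tool with a single drug or with five library-drug doses (not always all listed) in √10 steps on top of a fixed anchor-drug dose. Cells were fixed and nuclei stained in one step after 5 days, and nuclei were counted. Relative viability is the nuclei count for treated wells divided by that for vehicle wells, reported as medians of duplicate plates.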
# LCLC-97TM1 = tested on: LCLC-97TM1
# Procedure, shortened: as §1
# CAL-12T = tested on: CAL-12T
# Procedure, shortened: as §1
# NCI-H441 = tested on: NCI-H441
# Procedure, shortened: as §1
# SW 1573 = tested on: SW 1573
# Procedure, shortened: as §1
# NCI-H1793 = tested on: NCI-H1793
# Procedure, shortened: as §1
# 201T = tested on: 201T
# Procedure, shortened: as §1
# NCI-H838 = tested on: NCI-H838
# Procedure, shortened: as §1
# NCI-H1355 = tested on: NCI-H1355
# Procedure, shortened: as §1
# LOU-NH91 = tested on: LOU-NH91
# Procedure, shortened: as §1
# SK-LU-1 = tested on: SK-LU-1
# Procedure, shortened: as §1
# HCC-78 = tested on: HCC-78
# Procedure, shortened: as §1
# NCI-H3122 = tested on: NCI-H3122
# Procedure, shortened: as §1
# NCI-H650 = tested on: NCI-H650
# Procedure, shortened: as §1
# NCI-H2126 = tested on: NCI-H2126
# Procedure, shortened: as §1
# NCI-H1395 = tested on: NCI-H1395
# Procedure, shortened: as §1
# BEN = tested on: BEN
# Procedure, shortened: as §1
# NCI-H322M = tested on: NCI-H322M
# Procedure, shortened: as §1
# NCI-H1651 = tested on: NCI-H1651
# Procedure, shortened: as §1
# NCI-H2347 = tested on: NCI-H2347
# Procedure, shortened: as §1
# HOP-62 = tested on: HOP-62
# Procedure, shortened: as §1
# NCI-H1944 = tested on: NCI-H1944
# Procedure, shortened: as §1
smiles,measurement,setting,value
Cc1csc(=NC2CCCCC2)n1/N=C/c1ccc(O)c(O)c1O [MIM1] + CC(=O)c1c(C)c2cnc(Nc3ccc(N4CCNCC4)cn3)nc2n(C2CCCC2)c1=O [Palbociclib] (partner 0.5 µM),relative viability,NCI-H1915; first compound 0.2 µM,0.527
same,relative viability,NCI-H1915; first compound 0.6325 µM,0.529
same,relative viability,NCI-H1915; first compound 2 µM,0.497
same,relative viability,NCI-H1915; first compound 6.325 µM,0.395
same,relative viability,NCI-H1915; first compound 20 µM,0.181
same,relative viability,LCLC-97TM1; first compound 0.2 µM,0.22
same,relative viability,LCLC-97TM1; first compound 0.6325 µM,0.22
same,relative viability,LCLC-97TM1; first compound 2 µM,0.217
same,relative viability,LCLC-97TM1; first compound 6.325 µM,0.169
same,relative viability,LCLC-97TM1; first compound 20 µM,0.0835
same,relative viability,CAL-12T; first compound 0.2 µM,0.526
same,relative viability,CAL-12T; first compound 0.6325 µM,0.386
same,relative viability,CAL-12T; first compound 2 µM,0.481
same,relative viability,CAL-12T; first compound 6.325 µM,0.268
same,relative viability,CAL-12T; first compound 20 µM,0.118
same,relative viability,NCI-H441; first compound 0.2 µM,0.273
same,relative viability,NCI-H441; first compound 0.6325 µM,0.266
same,relative viability,NCI-H441; first compound 2 µM,0.205
same,relative viability,NCI-H441; first compound 6.325 µM,0.186
same,relative viability,NCI-H441; first compound 20 µM,0.114
same,relative viability,SW 1573; first compound 0.2 µM,0.412
same,relative viability,SW 1573; first compound 0.6325 µM,0.501
same,relative viability,SW 1573; first compound 2 µM,0.365
same,relative viability,SW 1573; first compound 6.325 µM,0.325
same,relative viability,SW 1573; first compound 20 µM,0.148
same,relative viability,NCI-H1793; first compound 0.2 µM,0.317
same,relative viability,NCI-H1793; first compound 2 µM,0.353
same,relative viability,NCI-H1793; first compound 6.325 µM,0.29
same,relative viability,NCI-H1793; first compound 20 µM,0.293
same,relative viability,201T; first compound 0.2 µM,0.358
same,relative viability,201T; first compound 0.6325 µM,0.344
same,relative viability,201T; first compound 2 µM,0.36
same,relative viability,201T; first compound 6.325 µM,0.327
same,relative viability,201T; first compound 20 µM,0.339
same,relative viability,NCI-H838; first compound 0.2 µM,0.202
same,relative viability,NCI-H838; first compound 0.6325 µM,0.26
same,relative viability,NCI-H838; first compound 2 µM,0.216
same,relative viability,NCI-H838; first compound 6.325 µM,0.169
same,relative viability,NCI-H838; first compound 20 µM,0.168
same,relative viability,NCI-H1355; first compound 0.2 µM,0.391
same,relative viability,NCI-H1355; first compound 0.6325 µM,0.371
same,relative viability,NCI-H1355; first compound 2 µM,0.41
same,relative viability,NCI-H1355; first compound 6.325 µM,0.385
same,relative viability,NCI-H1355; first compound 20 µM,0.288
same,relative viability,LOU-NH91; first compound 0.2 µM,0.524
same,relative viability,LOU-NH91; first compound 0.6325 µM,0.569
same,relative viability,LOU-NH91; first compound 2 µM,0.516
same,relative viability,LOU-NH91; first compound 6.325 µM,0.499
same,relative viability,LOU-NH91; first compound 20 µM,0.36
same,relative viability,SK-LU-1; first compound 0.2 µM,0.442
same,relative viability,SK-LU-1; first compound 0.6325 µM,0.397
same,relative viability,SK-LU-1; first compound 2 µM,0.368
same,relative viability,SK-LU-1; first compound 6.325 µM,0.418
same,relative viability,SK-LU-1; first compound 20 µM,0.307
same,relative viability,HCC-78; first compound 0.2 µM,0.463
same,relative viability,HCC-78; first compound 2 µM,0.494
same,relative viability,HCC-78; first compound 6.325 µM,0.377
same,relative viability,HCC-78; first compound 20 µM,0.402
same,relative viability,NCI-H3122; first compound 0.2 µM,0.186
same,relative viability,NCI-H3122; first compound 0.6325 µM,0.195
same,relative viability,NCI-H3122; first compound 2 µM,0.174
same,relative viability,NCI-H3122; first compound 6.325 µM,0.187
same,relative viability,NCI-H3122; first compound 20 µM,0.124
same,relative viability,NCI-H650; first compound 0.2 µM,0.372
same,relative viability,NCI-H650; first compound 0.6325 µM,0.359
same,relative viability,NCI-H650; first compound 2 µM,0.317
same,relative viability,NCI-H650; first compound 6.325 µM,0.366
same,relative viability,NCI-H650; first compound 20 µM,0.159
same,relative viability,NCI-H2126; first compound 0.2 µM,0.336
same,relative viability,NCI-H2126; first compound 0.6325 µM,0.388
same,relative viability,NCI-H2126; first compound 2 µM,0.348
same,relative viability,NCI-H2126; first compound 6.325 µM,0.34
same,relative viability,NCI-H2126; first compound 20 µM,0.329
same,relative viability,NCI-H1395; first compound 0.2 µM,0.583
same,relative viability,NCI-H1395; first compound 0.6325 µM,0.6
same,relative viability,NCI-H1395; first compound 2 µM,0.596
same,relative viability,NCI-H1395; first compound 6.325 µM,0.579
same,relative viability,NCI-H1395; first compound 20 µM,0.406
same,relative viability,BEN; first compound 0.2 µM,0.507
same,relative viability,BEN; first compound 0.6325 µM,0.466
same,relative viability,BEN; first compound 2 µM,0.438
same,relative viability,BEN; first compound 6.325 µM,0.468
same,relative viability,BEN; first compound 20 µM,0.407
same,relative viability,NCI-H322M; first compound 0.2 µM,0.466
same,relative viability,NCI-H322M; first compound 0.6325 µM,0.466
same,relative viability,NCI-H322M; first compound 2 µM,0.488
same,relative viability,NCI-H322M; first compound 6.325 µM,0.459
same,relative viability,NCI-H322M; first compound 20 µM,0.384
same,relative viability,NCI-H1651; first compound 0.2 µM,0.542
same,relative viability,NCI-H1651; first compound 0.6325 µM,0.531
same,relative viability,NCI-H1651; first compound 2 µM,0.521
same,relative viability,NCI-H1651; first compound 6.325 µM,0.416
same,relative viability,NCI-H1651; first compound 20 µM,0.541
same,relative viability,NCI-H2347; first compound 0.2 µM,0.408
same,relative viability,NCI-H2347; first compound 0.6325 µM,0.404
same,relative viability,NCI-H2347; first compound 2 µM,0.446
same,relative viability,NCI-H2347; first compound 6.325 µM,0.42
same,relative viability,NCI-H2347; first compound 20 µM,0.356
same,relative viability,HOP-62; first compound 0.2 µM,0.454
same,relative viability,HOP-62; first compound 0.6325 µM,0.44
same,relative viability,HOP-62; first compound 2 µM,0.404
same,relative viability,HOP-62; first compound 6.325 µM,0.431
same,relative viability,HOP-62; first compound 20 µM,0.127
same,relative viability,NCI-H1944; first compound 0.2 µM,0.369
same,relative viability,NCI-H1944; first compound 0.6325 µM,0.314
same,relative viability,NCI-H1944; first compound 2 µM,0.248
same,relative viability,NCI-H1944; first compound 6.325 µM,0.255
same,relative viability,NCI-H1944; first compound 20 µM,0.186
